{"source": "patent US20210015793A1", "about": "“COMPOUNDS FOR TREATING CNS- AND NEURODEGENERATIVE DISEASES” (ETH ZURICH, priority 2018, published 2021)", "key": {"[1]": {"test_system": "rats subjected to the CUMS protocol", "assay": "Immunoblot detection of hippocampal PHF-Tau (AT8) in aged rats subjected to CUMS", "assay_type": "in vivo, rat", "settings": "16 months-old rats, CUMS for 4 weeks, oral treatment 8 mg/kg/d", "method": "As a model for reproducing major features of sporadic AD and depression, 15 months-old male rats were […] according to the CUMS protocol for 4 weeks. The following stimuli were administered each week in a random order: two periods (7 h and 17 h) of 45° cage tilt; soaked cage for 17 h; food deprivation (24 h) and water deprivation (12 h), twice a week; paired housing (17 h); overnight illumination during the dark phase, twice a week; noise (85 dB) in the room for 5 h, twice a week; flashing light (60 flashes/min) for 6 h, three times a week (AbdAlla et al., Biomed. Res. Int. 2015:917156 (2015); El-faramawy et al., Pharmacol. Biochem. Behav. 91, 339-344 (2009)). The sucrose preference test (2% sucrose in water) was done immediately after a period of food and water deprivation. […]\nFor immunoblot detection of PHF-Tau in the hippocampus of aged 16 month-old rats subjected to the CUMS protocol for 4 weeks, hippocampi were dissected out from isolated brains on ice, pulverized under liquid nitrogen, and proteins were extracted with guanidine-hydrochloride (6.25 M guanidine hydrochloride in 50 mM Tris, pH 8.0 supplemented with 1× protease inhibitors and 1× phosphatase inhibitors) for 30 min at 4° C. […] For quantitative analysis, quantitative immunoblot evaluation was performed. To control for equal protein loading, the total content of hippocampal Gnb was determined. […]"}, "[2]": {"test_system": "rats subjected to the CUMS protocol", "assay": "Sucrose preference test (anhedonia) in rats subjected to CUMS", "assay_type": "in vivo, rat", "settings": "treated during CUMS", "method": "The following stimuli were administered each week in a random order: two periods (7 h and 17 h) of 45° cage tilt; soaked cage for 17 h; food deprivation (24 h) and water deprivation (12 h), twice a week; paired housing (17 h); overnight illumination during the dark phase, twice a week; noise (85 dB) in the room for 5 h, twice a week; flashing light (60 flashes/min) for 6 h, three times a week (AbdAlla et al., Biomed. Res. Int. 2015:917156 (2015); El-faramawy et al., Pharmacol. Biochem. Behav. 91, 339-344 (2009)). The sucrose preference test (2% sucrose in water) was done immediately after a period of food and water deprivation.\nSymptoms of depression and anhedonia induced by the CUMS protocol as a typical model of depression were determined by the sucrose preference test. For the sucrose preference test, rats (or mice) were trained to consume a sucrose solution (2%), which was put in the cage with a bottle of water. The sucrose consumption was determined at baseline for two weeks before the CUMS protocol (1 test per week, for 1 h, at 9-10 a.m.), and after 4 weeks of CUMS immediately after a period of food (24 h) and water (12 h) deprivation. The ratio of the sucrose-to-water consumption was determined. […] Similarly, the treatment effect of illustrative compounds on prevention of symptoms of depression was assessed by the sucrose preference test. […]"}}}
{"smiles": "O=C(C1=C(O)C(c2ccccc2)N(c2ccc3c(c2)OCO3)C1=O)C1CC1", "note": "(stereo not drawn) [Compound-1, 1-(1,3-benzodioxol-5-yl)-4-(cyclopropane-carbonyl)-3-hydroxy-2-phenyl-2H-pyrrol-5-one]", "values": [{"measurement": "hippocampal PHF Tau hyperphosphorylation (immunoblot AT8)", "setting": "[1]", "value": "retard PHF Tau hyperphosphorylation"}, {"measurement": "sucrose consumption in sucrose preference test", "setting": "[2]; 16-month-old rats, 4 weeks CUMS, vs non-stressed control group", "value": "not significantly different from the non-stressed control group"}, {"measurement": "CUMS-induced anhedonia in sucrose preference test", "setting": "[2]; young rats (aged 4 months)", "value": "prevented the development of CUMS-induced anhedonia and symptoms of depression"}]}
